Reference: patent US9393244B2, “Increasing parkin activity by administering a deubiquitinating enzyme inhibitor” (Georgetown University, priority 2013, dated 2016)
Peptide text beside a SMILES is read from it. * marks the point of attachment. Cbz = O=C(OCc1ccccc1)*

How the values were obtained:
20S proteasome = biological target: T1, 20S proteasome (Homo sapiens, UniProt P28074); test: Chymotrypsin-like proteasome activity assay in M17 cells; type: cell-based; conditions: for effects of USP13 overexpression on proteasome activity: shRNA with USP13 overexpression
T1 construct: endogenous in cells; host or cells: human M17 neuroblastoma cells
Description: (§1) To further determine whether USP13 targets parkin, M17 cells were transfected with 3 μg lentiviral plasmids containing parkin, USP13 or different shRNA USP13 clones (FIG. 27A) for 48 hr. The expression level of the shRNAs was determined by routine stereology of the GFP and VS-tagged lentivirus to ensure equal expression of lentiviral plasmids. USP13 gene expression level is verified by PCR. Co-expression of USP13 and parkin led to an increase (134%) in parkin level compared to parkin alone (FIG. 27A, 1st blot, N=4), but shRNA expression reduced USP13 and parkin levels relative to actin (FIG. 27A). […] To ascertain that manipulation of USP13 expression affects protein clearance, the activity of the 20S proteasome activity was measured using chymotrypsin-like assays. Proteasome activity was inhibited after 2 hr treatment with 20 μM proteasome inhibitor MG132 compared to control (LacZ) or parkin alone (FIG. 27B, N=4).

USP10 = test: Western blot of STEN (soluble) extracts of M17 cells, endogenous USP10 level; type: cell-based, human; conditions: M17 cells transfected with 3 μg lentiviral plasmids for 48 hr; FIG. 27A 2nd blot
Description: as §1

USP13 = test: Western blot of STEN (soluble) extracts of M17 cells, USP13 level; type: cell-based, human; conditions: M17 cells transfected with 3 μg lentiviral plasmids for 48 hr; FIG. 27A 1st blot
Description: as §1

parkin = test: Western blot of STEN (soluble) extracts of M17 cells, parkin level; type: cell-based, human; conditions: M17 cells transfected with 3 μg lentiviral plasmids for 48 hr; FIG. 27A 3rd blot
Description: as §1

Compound | effect on USP10 level (USP10) | effects of USP13 overexpression on proteasome activity (20S proteasome) | other results
CC(C)C[C@@H](C=O)NC(=O)[C@H](CC(C)C)NC(=O)[C@H](CC(C)C)NC(=O)OCc1ccccc1 [MG132, reference compound] (Cbz-Leu-Leu-Leu-aldehyde) |  |  | proteasome activity (20S proteasome; 2 hr treatment with 20 μM, compared to control (LacZ) or parkin alone, N=4): inhibited; effect on shRNA-mediated increase/reversal of proteasome activity (20S proteasome; MG132 added to shRNA (F03, F02) conditions): blocked these effects; proteasome activity (20S proteasome; cells co-expressing USP13 with parkin): further inhibited
E07: USP13 shRNA clone, 5′ TTTCCAGTGAAGTACACAG 3′ (SEQ ID NO: 1) | without any effects |  | 
E08: USP13 shRNA clone, 5′ TATTCGTTGCTCGTAGTGC 3′(SEQ ID NO: 5) | did not produce any significant effects |  | effect on USP13 level (USP13): did not produce any significant effects; effect on parkin level (parkin): did not produce any significant effects
F02: USP13 shRNA clone, 5′ TCTTGTAGACCCTGTCGCC 3′ (SEQ ID NO: 4) | without any effects | completely reversed | 
F03: USP13 shRNA clone, 5′ TTTCTCGCAGGTCGCATCT 3′ (SEQ ID NO: 3) | without any effects | completely reversed | increase of proteasome activity (20S proteasome; blocking USP13 with shRNA, compared to control): 14%
F04: USP13 shRNA clone, 5′AACTTAGTCATCTGTGTGT 3′ (SEQ ID NO: 2) | without any effects |  | 
